System: Renal Hypertensive Rats
Test: Antihypertensive effects in renal hypertensive rats
Assay type: in vivo
Settings: Rattus norvegicus; for minimal effective dose at 10 mg/kg / minimal effective dose at 100 mg/kg: Table 25; for minimal effective dose at 10 mg/kg / minimal effective dose at 3 mg/kg: intravenous; for minimal effective dose at 10 mg/kg: 10 mg/kg or less; for minimal effective dose at 100 mg/kg / minimal effective dose at 30 mg/kg: oral; for minimal effective dose at 100 mg/kg: 100 mg/kg or less; for minimal effective dose at 3 mg/kg / minimal effective dose at 30 mg/kg: Table 26
Method: This procedure increases blood pressure by increasing renin production with consequent elevation of AII levels. Compounds are administered orally at 100 mg/kg and/or intravenously via a cannula in the jugular vein at 10 mg/kg. Arterial blood pressure is continuously measured directly through a carotid artery cannula and recorded using a pressure transducer and a polygraph. Blood pressure levels after treatment are compared to pretreatment levels to determine the antihypertensive effects of the compounds (See Table 25).
Compounds listed in Table 26 were tested in the same manner as described for Table 25, except that in the test for antihypertensive effects in renal hypertensive rats, the compounds were administered orally at 30 mg/kg and intravenously at 3 mg/kg.

| Structure (SMILES) | minimal effective dose at 10 mg/kg | minimal effective dose at 100 mg/kg | also measured |
| --- | --- | --- | --- |
| CCCCc1nc(Cl)c(CO)n1Cc1ccc(-c2occc2C(=O)O)cc1 (single isomer, unassigned) [Example 178, 2-n-Butyl-1-[4-(3-carboxyfuran-2-yl)benzyl]-4-chloro-5-(hydroxymethyl)imidazole] | < 10 mg/kg | < 100 mg/kg | – |
| CCCCc1nc(Cl)c(CC(=O)O)n1Cc1ccc(C(=O)O)cc1 [Example 1, 2-Butyl-1-(4-carboxybenzyl)-4-chloroimidazole-5-acetic acid] | < 10 mg/kg | > 100 mg/kg | – |
| CCCCc1nc(Cl)c(CC(=O)OC)n1Cc1ccc(NC(=O)c2ccccc2C(=O)O)cc1 [Example 2, Methyl 2-butyl-1-[4-(2-carboxybenzamido)benzyl]-4-chloroimidazole-5-acetate] | – | – | minimal effective dose at 10 mg/kg (tested as sodium salt): < 10 mg/kg; minimal effective dose at 100 mg/kg (tested as sodium salt): > 100 mg/kg |
| CCCCc1nc(Cl)c(COC)n1Cc1ccc(NC(=O)c2ccccc2C(=O)O)cc1 [Example 4, 2-Butyl-1-[4-(2-carboxybenzamido)benzyl]-4-chloro-5-(methoxymethyl)-imidazole] | – | – | minimal effective dose at 10 mg/kg (tested as sodium salt): < 10 mg/kg; minimal effective dose at 100 mg/kg (tested as sodium salt): > 100 mg/kg |
| CCCCc1nc(Cl)c(CC(=O)OC)n1Cc1ccc(NC(=O)c2c(F)c(F)c(F)c(F)c2C(=O)O)cc1 [Example 8] | – | – | minimal effective dose at 100 mg/kg (tested as sodium salt): > 100 mg/kg |
| CCCCc1nc(Cl)c(COC)n1Cc1ccc(NC(=O)c2c(Cl)ccc(Cl)c2C(=O)O)cc1 [Example 17] | – | – | minimal effective dose at 10 mg/kg (tested as sodium salt): < 10 mg/kg; minimal effective dose at 100 mg/kg (tested as sodium salt): > 100 mg/kg |
| CCCCc1nc(Cl)c(COC)n1Cc1ccc(NC(=O)c2ccccc2S(=O)(=O)O)cc1 [Example 18a] | – | – | minimal effective dose at 3 mg/kg: < 3 mg/kg; minimal effective dose at 30 mg/kg: < 30 mg/kg |
| CCCCc1nc(Cl)c(CO)n1Cc1ccc(-c2cccc(C(=O)O)c2)cc1 [Example 85, 1-[(3'-Carboxybiphenyl-4-yl)-methyl]-2-butyl-4-chloro-5-hydroxymethylimidazole] | < 10 mg/kg | < 100 mg/kg | – |
| CCCCc1nc(Cl)c(COC)n1Cc1ccc(-c2cccc(C(=O)O)c2)cc1 [Example 86, 1-[(3'-Carboxybiphenyl-4-yl)-methyl]-2-butyl-4-chloro-5-methoxymethylimidazole] | < 10 mg/kg | > 100 mg/kg | – |
| CCCCc1nc(Cl)c(CO)n1Cc1ccc(-c2ccccc2-c2nnn[nH]2)cc1 [Example 89, 2-n-butyl-4-chloro-5-hydroxymethyl-1-[(2'-(1H-tetrazol-5-yl)biphenyl-4-yl)methyl]imidazole] | < 10 mg/kg | < 100 mg/kg | – |
| CCCCc1nc(C(F)(F)F)c(CO)n1Cc1ccc(-c2ccccc2-c2nnn[nH]2)cc1 [Example 92B, 2-butyl-5-hydroxymethyl-1-[(2'-(1H-tetrazol-5-yl)biphenyl-4-yl)methyl]-4-trifluoromethylimidazole] | – | – | minimal effective dose at 3 mg/kg: < 3 mg/kg |
| CCCSc1ncc(CO)n1Cc1ccc(-c2ccccc2C(=O)O)cc1 [Example 93, 1-[(2'-carboxybiphenyl-4-yl)-methyl]-2-propylthio-5-hydroxymethylimidazole] | < 10 mg/kg | > 100 mg/kg | – |
| CCCCc1nc(Cl)c(COC)n1Cc1ccc(-c2ccccc2C(=O)O)cc1 [Example 98] | – | – | minimal effective dose at 10 mg/kg (tested as sodium salt): < 10 mg/kg; minimal effective dose at 100 mg/kg (tested as sodium salt): < 100 mg/kg |
| CCCCCCc1nc(Cl)c(CO)n1Cc1ccc(-c2ccccc2C(=O)O)cc1 [Example 110] | < 10 mg/kg | < 100 mg/kg | – |
| CCCCc1nc(Cl)c(COC(C)=O)n1Cc1ccc(-c2ccccc2C(=O)O)cc1 [Example 121] | < 10 mg/kg | < 100 mg/kg | – |
| CCCCc1nc(Br)c(CO)n1Cc1ccc(-c2ccccc2-c2nn[nH]n2)cc1 [Example 124C] | – | – | minimal effective dose at 3 mg/kg: < 3 mg/kg; minimal effective dose at 30 mg/kg: < 30 mg/kg |
| CCCCc1nc(I)c(CO)n1Cc1ccc(-c2ccccc2-c2nnn[nH]2)cc1 [Example 124L] | – | – | minimal effective dose at 3 mg/kg: < 3 mg/kg; minimal effective dose at 30 mg/kg: < 30 mg/kg |
| CCCCc1nc(Cl)c(C=O)n1Cc1ccc(-c2ccccc2C(=O)O)cc1 [Example 125, 1-[(2'-carboxybiphenyl-4-yl)methyl]-2-butyl-4-chloroimidazole-5-carboxaldehyde] | < 10 mg/kg | < 100 mg/kg | – |
| CC/C=C/c1nc(Cl)c(CO)n1Cc1ccc(-c2ccccc2C(=O)O)cc1 [Example 128, 1-[(2'-Carboxybiphenyl-4-yl)-methyl]-2-(1-trans-butenyl)-4-chloro-5-hydroxymethylimidazole] | < 10 mg/kg | < 100 mg/kg | – |
| CC/C=C/c1nc(Cl)c(C=O)n1Cc1ccc(-c2ccccc2C(=O)O)cc1 [Example 129, 1-[(2'-Carboxybiphenyl-4-yl)methyl]-2-(1-trans-butenyl)-4-chloroimidazole-5-carboxaldehyde] | < 10 mg/kg | < 100 mg/kg | – |
| CCCc1nc(C(F)(F)C(F)(F)F)c(C=O)n1Cc1ccc(-c2ccccc2-c2nnn[nH]2)cc1 [Example 140G] | – | – | minimal effective dose at 30 mg/kg: < 30 mg/kg |
| CCCCc1nc(Cl)c(COC)n1Cc1ccc(-c2ccccc2NS(=O)(=O)C(F)(F)F)cc1 [Example 141, 1-[(2'-trifluoromethanesulfonamidobiphenyl-4-yl)methyl]-2-butyl-4-chloro-5-methoxymethylimidazole] | < 10 mg/kg | < 100 mg/kg | – |
| CCCCc1nc(Cl)c(CO)n1Cc1ccc(-c2ccccc2NS(=O)(=O)C(F)(F)F)cc1 [Example 144] | < 10 mg/kg | < 100 mg/kg | – |
| CCCCc1nc(Cl)c(COC)n1Cc1ccc(-c2ccccc2C(=O)Nc2nnn[nH]2)cc1 [Example 173, 2-n-Butyl-4-chloro-5-methoxymethyl-1-[(2'-((tetrazol-5-yl)aminocarbonyl)biphenyl-4-yl)-methyl]imidazole] | – | – | minimal effective dose at 10 mg/kg (tested as sodium salt): < 10 mg/kg |
| CCCCc1nc(Cl)c(CO)n1Cc1ccc(-c2ccccc2C(=O)NOC)cc1 [Example 180, 1-[(2'-Methoxyaminocarbonylbiphenyl-4-yl)methyl]-2-butyl-4-chloro-5-hydroxymethylimidazole] | < 10 mg/kg | > 100 mg/kg | – |
| CCCCc1nc(Cl)c(CO)n1Cc1ccc(-c2ccccc2NC(=O)C(F)(F)F)cc1 [Example 183, 1-[(2'-Trifluoroacetamidobiphenyl-4-yl)methyl]-2-butyl-4-chloro-5-hydroxymethylimidazole] | < 10 mg/kg | > 100 mg/kg | – |
| CCCCc1nc(Cl)c(CO)n1Cc1ccc(Oc2ccccc2C(=O)O)cc1 [Example 184, 2-Butyl-4-chloro-1-[4-(2-carboxyphenoxy)benzyl]-5-hydroxymethylimidazole] | < 10 mg/kg | > 100 mg/kg | – |
| CCCCc1nc(Cl)c(CO)n1Cc1ccc(Sc2ccccc2C(=O)O)cc1 [Example 185] | < 10 mg/kg | > 100 mg/kg | – |
| CCCCc1ncc(CO)n1Cc1ccc(OCc2ccccc2C(=O)O)cc1 [Example 193, 1-[4-(2-Carboxybenzyloxy)-benzyl] -2-butyl-5-hydroxymethylimidazole] | < 10 mg/kg | > 100 mg/kg | – |
| CCCCc1nc(Cl)c(CO)n1Cc1ccc(OCc2ccccc2C(=O)O)cc1 [Example 195] | < 10 mg/kg | < 100 mg/kg | – |
